Results reported in patent US10851083B2, “Benzoimidazoles as prolyl hydroxylase inhibitors” (Janssen Pharmaceutica NV, priority 2008, dated 2020).

Legend:
Hep-3B cells = experiment: Cellular assay: EPO secretion in Hep-3B cells; format: cell-based, human; design: EPO secretion, % of control compound: dose or concentration left out as unconfirmed; conditions: Homo sapiens, Hep3B, 24 h, EPO secretion as percentage of control compound 7-[(4-Chloro-phenyl)-(5-methyl-isoxazol-3-ylamino)-methyl]-quinolin-8-ol, read-out: Cellular % EPO Stimulation
human PHD2181-417 = human PHD2181-417 (Homo sapiens (Human), UniProt Q9GZT9); experiment: PHD2 enzyme activity assay ([14C]-succinic acid production); format: biochemical; conditions: PHD2181-417 polypeptide, HIF-1α peptide 10 μM, [5-14C]-2-oxoglutaric acid; 30 min pre-incubation; tested 10 μM to 3 nM;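 note: reaction ran 10 min with compound in Tris pH 7.5 buffer with catalase, DTT and ascorbate, labelled succinate freed of leftover 2-oxoglutarate by DNP precipitation, then beta counted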
human PHD2181-417, sequence (Q9GZT9 181-417): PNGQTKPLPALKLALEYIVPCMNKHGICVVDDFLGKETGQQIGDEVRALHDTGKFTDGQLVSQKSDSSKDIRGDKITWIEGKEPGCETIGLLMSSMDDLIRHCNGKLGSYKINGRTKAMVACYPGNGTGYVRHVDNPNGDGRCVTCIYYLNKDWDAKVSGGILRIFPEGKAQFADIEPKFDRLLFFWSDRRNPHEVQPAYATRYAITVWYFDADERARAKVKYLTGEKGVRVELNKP

| Enzyme pIC50 (human PHD2181-417) | SMILES | EPO secretion, % of control compound (Hep-3B cells) [%] |
| --- | --- | --- |
| 7.2 | CC(C)(C)c1ccc(CSc2cc3nc(-n4cc(C(=O)O)cn4)[nH]c3cc2Cl)cc1 [Example 67, 1-[5-(4-tert-Butyl-benzylsulfanyl)-6-chloro-1H-benzoimidazol-2-yl]-1H-pyrazole-4-carboxylic Acid] | 11.7 |
| 7.5 | O=C(O)c1cnn(-c2nc3cc(S(=O)(=O)Cc4ccc(F)cc4)c(Cl)cc3[nH]2)c1 [Example 92, 1-[6-Chloro-5-(4-fluoro-phenylmethanesulfonyl)-1H-benzoimidazol-2-yl]-1H-pyrazole-4-carboxylic Acid] | 61.2 |
| 7.6 | CCS(=O)(=O)c1cc2nc(-n3cc(C(=O)O)cn3)[nH]c2cc1OC(F)(F)F [Example 155, 1-(5-Ethylsulfonyl-6-trifluoromethoxy-1H-benzoimidazol-2-yl)-1H-pyrazole-4-carboxylic Acid] | 47.2 |
| 6.6 | O=C(O)c1cnn(-c2nc3cc(F)c(F)cc3[nH]2)c1 [Example 36, 1-(5,6-Difluoro-1H-benzoimidazol-2-yl)-1H-pyrazole-4-carboxylic Acid] | 79.4 |
| 6.9 | O=C(O)c1cnn(-c2nc3cc(Cl)c(Cl)cc3[nH]2)c1 [Example 2, 1-(5,6-Dichloro-1H-benzoimidazol-2-yl)-1H-pyrazole-4-carboxylic Acid] | 152 |
| 6.5 | O=C(O)c1cnn(-c2nc3cc(N4CCCCC4)c(OC(F)(F)F)cc3[nH]2)c1 [Example 117, 1-(5-Piperidin-1-yl-6-trifluoromethoxy-1H-benzoimidazol-2-yl)-1H-pyrazole-4-carboxylic Acid] | 80 |
| 7.2 | CCSc1cc2nc(-n3cc(C(=O)O)cn3)[nH]c2cc1OC(F)(F)F [Example 150, 1-(5-Ethylsulfanyl-6-trifluoromethoxy-1H-benzoimidazol-2-yl)-1H-pyrazole-4-carboxylic Acid] | 47.2 |
| 6.9 | Cc1cccc(Sc2cc3nc(-n4cc(C(=O)O)cn4)[nH]c3cc2Cl)c1 [Example 60, 1-(6-Chloro-5-m-tolylsulfanyl-1H-benzoimidazol-2-yl)-1H-pyrazole-4-carboxylic Acid] | 42.3 |
| 6.1 | O=C(O)c1cnn(-c2nc3c(ccc4ccccc43)[nH]2)c1 [Example 115, 1-(3H-Naphtho[1,2-d]imidazol-2-yl)-1H-pyrazole-4-carboxylic Acid] | 50 |
| 6.3 | O=C(O)c1cnn(-c2nc3cc(NCCN4CCOCC4)c(Cl)cc3[nH]2)c1 [Example 134, 1-[6-Chloro-5-(2-morpholin-4-yl-ethylamino)-1H-benzoimidazol-2-yl]-1H-pyrazole-4-carboxylic Acid] | 56.5 |
| 7.6 | CCS(=O)(=O)c1cc2nc(-n3cc(C(=O)O)cn3)[nH]c2cc1C(F)(F)F [Example 154, 1-(5-Ethylsulfonyl-6-trifluoromethyl-1H-benzoimidazol-2-yl)-1H-pyrazole-4-carboxylic Acid] | 53.8 |
| 7.5 | COc1ccc(Sc2cc3nc(-n4cc(C(=O)O)cn4)[nH]c3cc2C(F)(F)F)cc1 [Example 160, 1-[5-(4-Methoxy-phenylsulfanyl)-6-trifluoromethyl-1H-benzoimidazol-2-yl]-1H-pyrazole-4-carboxylic Acid] | 36.1 |
| 7.2 | O=C(O)c1cnn(-c2nc3cc(Oc4ccccc4)c(OC(F)(F)F)cc3[nH]2)c1 [Example 53, 1-(5-Phenoxy-6-trifluoromethoxy-1H-benzoimidazol-2-yl)-1H-pyrazole-4-carboxylic Acid] | 138 |
| 6.1 | O=C(O)c1cnn(-c2nc3c(Cl)cccc3[nH]2)c1 [Example 27, 1-(4-Chloro-1H-benzoimidazol-2-yl)-1H-pyrazole-4-carboxylic Acid] | 19.1 |
| 7.1 | O=C(O)c1cnn(-c2nc3cc(Oc4ccc(F)c(Cl)c4)c(Cl)cc3[nH]2)c1 [Example 148, 1-[6-Chloro-5-(3-chloro-4-fluoro-phenoxy)-1H-benzoimidazol-2-yl]-1H-pyrazole-4-carboxylic Acid] | 38.1 |
| 7.5 | CCCS(=O)(=O)c1cc2[nH]c(-n3cc(C(=O)O)cn3)nc2cc1OC(F)(F)F [Example 106, 1-[6-(Propane-1-sulfonyl)-5-trifluoromethoxy-1H-benzoimidazol-2-yl]-1H-pyrazole-4-carboxylic Acid] | 124 |
| 7.4 | O=C(O)c1cnn(-c2nc3cc(Oc4ccc(OC(F)(F)F)cc4)c(Cl)cc3[nH]2)c1 [Example 147, 1-[6-Chloro-5-(4-trifluoromethoxy-phenoxy)-1H-benzoimidazol-2-yl]-1H-pyrazole-4-carboxylic Acid] | 45.9 |

| Enzyme pIC50 (human PHD2181-417) | SMILES | EPO secretion, % of control compound (Hep-3B cells) [%] |
| --- | --- | --- |
| 7.5 | CCCS(=O)(=O)c1cc2[nH]c(-n3cc(C(=O)O)cn3)nc2cc1Cl [Example 102, 1-[5-Chloro-6-(propane-1-sulfonyl)-1H-benzoimidazol-2-yl]-1H-pyrazole-4-carboxylic Acid] | 54.9 |
| 6.9 | CCSc1cc2nc(-n3cc(C(=O)O)cn3)[nH]c2cc1F [Example 151, 1-(5-Ethylsulfanyl-6-fluoro-1H-benzoimidazol-2-yl)-1H-pyrazole-4-carboxylic Acid] | 107 |
| 7.6 | O=C(O)c1cnn(-c2nc3cc(S(=O)(=O)Cc4ccc(Cl)c(Cl)c4)c(Cl)cc3[nH]2)c1 [Example 176, 1-[6-Chloro-5-(3,4-dichloro-phenylmethanesulfonyl)-1H-benzoimidazol-2-yl]-1H-pyrazole-4-carboxylic Acid] | 44.2 |
| 7.8 | O=C(O)c1cnn(-c2nc3cc(S(=O)(=O)Cc4ccc(Cl)cc4)c(Cl)cc3[nH]2)c1 [Example 173, 1-[6-Chloro-5-(4-chloro-phenylmethanesulfonyl)-1H-benzoimidazol-2-yl]-1H-pyrazole-4-carboxylic Acid] | 60.4 |
| 6.8 | O=C(O)c1cnn(-c2nc3c(F)cc(F)cc3[nH]2)c1 [Example 112, 1-(4,6-Difluoro-1H-benzoimidazol-2-yl)-1H-pyrazole-4-carboxylic Acid] | 32 |
| 5.9 | O=C(O)c1cnn(-c2nc3nccnc3[nH]2)c1 [Example 184, 1-(1H-Imidazo[4,5-b]pyrazin-2-yl)-1H-pyrazole-4-carboxylic Acid] | 8.3 |
| 6.4 | CN1CCN(CC(=O)Nc2cc3nc(-n4cc(C(=O)O)cn4)[nH]c3cc2Cl)CC1 [Example 144, 1-{6-Chloro-5-[2-(4-methyl-piperazin-1-yl)-acetylamino]-1H-benzoimidazol-2-yl}-1H-pyrazole-4-carboxylic Acid] | 16 |
| 7.4 | O=C(O)c1cnn(-c2nc3cc(Oc4ccc(Cl)cc4)c(OC(F)(F)F)cc3[nH]2)c1 [Example 52, 1-[5-(4-Chloro-phenoxy)-6-trifluoromethoxy-1H-benzoimidazol-2-yl]-1H-pyrazole-4-carboxylic Acid] | 21.6 |
| 6.2 | O=C(O)c1cnn(-c2nc3cc(NCc4ccccc4)c(Cl)cc3[nH]2)c1 [Example 132, 1-(5-Benzylamino-6-chloro-1H-benzoimidazol-2-yl)-1H-pyrazole-4-carboxylic Acid] | 52.6 |
| 7.3 | O=C(O)c1cnn(-c2nc3cc(Oc4ccc(F)cc4)c(C(F)(F)F)cc3[nH]2)c1 [Example 54, 1-[5-(4-Fluoro-phenoxy)-6-trifluoromethyl-1H-benzoimidazol-2-yl]-1H-pyrazole-4-carboxylic Acid] | 75.5 |
| 7.7 | O=C(O)c1cnn(-c2nc3cc(S(=O)(=O)CC4CCCCC4)c(Cl)cc3[nH]2)c1 [Example 175, 1-(6-Chloro-5-cyclohexylmethanesulfonyl-1H-benzoimidazol-2-yl)-1H-pyrazole-4-carboxylic Acid] | 48.7 |
| 7.4 | CCS(=O)(=O)c1cc2[nH]c(-n3cc(C(=O)O)cn3)nc2cc1Cl [Example 96, 1-(5-Chloro-6-ethanesulfonyl-1H-benzoimidazol-2-yl)-1H-pyrazole-4-carboxylic Acid] | 67 |
| 6.2 | CCNc1cc2nc(-n3cc(C(=O)O)cn3)[nH]c2cc1Cl [Example 130, 1-(6-Chloro-5-ethylamino-1H-benzoimidazol-2-yl)-1H-pyrazole-4-carboxylic Acid] | 48 |
| 6.6 | O=C(O)c1cnn(-c2nc3cc(NC(=O)c4ccccc4)c(Cl)cc3[nH]2)c1 [Example 141, 1-(5-Benzoylamino-6-chloro-1H-benzoimidazol-2-yl)-1H-pyrazole-4-carboxylic Acid] | 33 |
| 7.1 | CSc1cc2[nH]c(-n3cc(C(=O)O)cn3)nc2cc1C(F)(F)F [Example 71, 1-(6-Methylsulfanyl-5-trifluoromethyl-1H-benzoimidazol-2-yl)-1H-pyrazole-4-carboxylic Acid] | 114 |
| 6.7 | O=C(O)c1cnn(-c2nc3cc(SCCc4ccccc4)c(Cl)cc3[nH]2)c1 [Example 70, 1-(6-Chloro-5-phenethylsulfanyl-1H-benzoimidazol-2-yl)-1H-pyrazole-4-carboxylic Acid] | 74.2 |
